Measurements: EP0383856B1, “USE OF PEPTIDES FOR INHIBITING BLOOD VESSEL BLOCKAGE” (SOCIETE DE CONSEILS DE […] D'APPLICATIONS SCIENTIFIQUES …, priority 1988, dated 1989)
Where “and” joins values, the source holds several entries; their conditions need not be identical. Identical values can stand only once. Like-named read-outs stand apart in the source and are kept apart here.

How the values were obtained:
[1] = tested on: myointimal proliferation of the carotid artery; experiment: Air-drying injury of the rat carotid artery, myointimal proliferation (maximal intimal/media ratio, morphometry); assay type: in vivo, Sprague-Dawley rats
Description: Male Sprague-Dawley rats, weighing […], obtained from Charles River were kept under controlled lighting conditions and fed rat chow and water ad libitum. Under sodium pentobarbital anesthesia the intima of the right carotid artery was subjected to an air-drying injury described by Fishman et al, Lab Invest., 32, 339 (1975). This procedure causes intimal hyperplasia that largely consists of proliferating intimal smooth muscle cells. In this model approximately 4 cm of the vessel is isolated and drained of blood. Air (20 ml/min) is blown through a 30 gauge needle for 5 min whereafter blood flow is reestablished. The contralateral carotid artery was also exposed but not air-dried. The rats were sacrificed 15 days later.
The experiment consisted of a control group and ten treatment groups. The somatostatin analogs used were hepta- or octapeptides, namely BIM 23014 (Angiopeptin), BIM 23012, BIM 23027, BIM 23030 and BIM 23034. […] The animals were pretreated two days prior to the procedure and for a further five days following the endothelial injury. Two additional groups of animals were added in order to study whether Angiopeptin (20 µg/kg/day and 50 µg/kg/day) administered 30 min prior to the endothelial injury and for a further five days would protect against the myointimal proliferation.
The animals were sacrificed on day 15 following the injury by exsanguination. The vascular system was flushed with normal saline and perfusion-fixed at 80 mmHg with 10% formalin. The carotid arteries were subsequently fixed, embedded and sectioned for light microscopy and morphometric analysis. The maximal intimal/media ratio is the distance from the lumen to the internal elastic lamina and the distance from the internal elastic lamina to the external elastic lamina. The distances were determined in each vessel using a digitizing system attached to a light microscope. The determinations were performed on three different cross sections of the vessel and each section was measured three times. The mean was calculated for each vessel. Differences between the groups were evaluated using Student's unpaired t-test.

Myointimal Hyperplasia = experiment: Myointimal hyperplasia in rabbits after balloon angioplasty of iliac artery and aorta (morphometry); assay type: in vivo, white New Zealand rabbits; details: for percentage of inhibition of myointimal hyperplasia: 20 µg/kg/d; for % Intimal hyperplasia, Mean: group mean; for % Intimal hyperplasia: individual samples
Description: Female and Male, white New Zealand rabbits (2.8-3.0 kg) were divided into two groups (A and B). Group A (vehicle control) received subcutaneous injections of physiological saline (0.2 ml) twice daily. […] The animals were treated the day before angioplasty, and until sacrifice about 3 weeks later. The angioplasty was done under general anesthesia with Ketamine and Xylazine. Each animal's left iliac artery and aorta were denuded with an angioplasty catheter (Fogarty). The angioplasty catheter was inserted into the left femoral artery and passed through the vessel to the thoracic aorta. The catheter was then reciprocated three times. The animals were all sacrificed from days 22-24 after angioplasty. The aorta and iliac arteries were fixed in situ via perfusion with formaldehyde under constant perfusion pressure.
Intimal hyperplasia was determined on elastin-stained (Van Giesen) horizontally-cut sections. The sections were obtained from (i) the aorta at the level of the renal artery, (ii) the common iliac artery at the level of bifurcation, and (iii) the external iliac artery just above the inguinal ligament. The area of intimal hyperplasia and total vessel area were determined by morphometry. The percentage of intimal hyperplasia was expressed as follows: [formula] Single determinations were made on three segments of each aorta and the two iliac arteries of each animal. The percentage of intimal hyperplasia was determined as the mean of the two closest measurements of each vessel.

[2] = tested on: smooth muscle cell proliferation; experiment: Primate balloon catheter injury of aorta and femoral arteries, smooth muscle cell proliferation; assay type: in vivo, cynomologous macaques; details: aorta and left and right femoral arteries; i.m. slow release system, total 50 µg/kg/day; one treated animal versus one control; five weeks
Description: In order to obtain a primate coronary angioplasty model which would be suited for evaluation of Angiopeptin, a feasibility study was performed on primates which were made available from the colony at Bowman-Gray Medical School, Winston-Salem, North Carolina. These animals were culled from the colony due to failure of the primates to satisfactorily elevate blood lipids when administered a high cholesterol diet. Young male cynomologous macaques weighing approximately 3.5 kg were used after an equilibration period of more than a week in a primate facility.
The animals were sedated with Ketamine and maintained with 1% halothane in oxygen. The aorta and femoral arteries were injured by a balloon catheter (USCI, Band). After five weeks the primates were anesthetized and sacrificed. The aorta and femoral arteries were removed and fixed in formaldehyde for morphometric analysis. […]
The maximal intimal/media ratio (distance from lumen to internal elastic lamina/distance from internal elastic lamina to external elastic lamina) was determined in each vessel using a digitizing system attached to a light microscope. The determinations were done on three different cross sections of the vessel and each section was measured three times and each three measurements were averaged.

[3] = tested on: myointimal cell proliferation in the aortas of rabbits; experiment: Rabbit aorta 72 hours after balloon angioplasty: wet weight, protein, DNA/protein, 3-H thymidine incorporation; assay type: in vivo, New Zealand White Rabbits; details: for Levels of Proteins (total protein content of the injured aortas): Fig. 2; for DNA/Protein Ratio: Fig. 3; for Thymidine (3-H) Incorporation (rates of cell proliferation): Fig. 4
Description: New Zealand White Rabbits were anesthetised with Rompun (Xylazine) and Ketalar (Ketamine) and a cannula (3F Fogarty) was inserted from the femoral artery. The balloon was inflated at a constant pressure and the aorta was deendothelialised by angioplasty. The process was repeated three times and the wound site was closed. The animals were sacrificed 72 hours after balloon angioplasty and after removing the adventitia the aorta was cut into fine rings. These rings were incubated in the presence of 3-H thymidine and the radioactivity was determined after processing the tissue. Simultaneous measurements of DNA and protein contents were also made in these tissues.
Eight injections of Angiopeptin were made: on the morning and evening of the day prior to ballooning; two on the day of the procedure; and two on each of the following two days. The total daily dose was 2, 20, or 200 µg/Kg body weight.

[4] = tested on: smooth muscle pig left coronary artery explants; experiment: H3-thymidine incorporation in denuded pig left coronary artery explants; assay type: cell-based, Domestic pig; details: 24 hr, individual segments
Description: Domestic pig hearts were obtained from a slaughter house immediately after the animals were sacrificed. The hearts were harvested and placed in ice-cold Kreb's Ringer buffer and transported to the laboratory. The left coronary artery (LAD) was dissected in aseptic conditions and divided into pieces of 5 mm. The segments were denuded from the endothelium by gently introducing a metallic rod in the lumen. The tissues were placed in sterile multiwell culture dishes in 1 ml of culture media (DMEM with antibiotics) and without fetal calf serum. H³-thymidine (2.5 uCi/ml) and increasing concentrations of angiopeptin (10-1000 ng/ml) were added to the medium. Segments which were incubated with 3 different concentrations of forskolin were used as a positive control in each experiment. The incubation period was 24 hr at 37°C and 5% CO₂. The tissues were washed with phosphate saline buffer and placed in a solution of cold thymidine for one hour and then frozen in liquid nitrogen, ground and lysed with a hypotonic solution. The lysed tissues were further incubated with proteinase K overnight at 50°C. The radioactivity, content of protein and DNA were measured.

growth hormone release = details: in vivo, from Heiman et al., Coy et al., Tolis et al., cited from earlier work
[5] = common iliac artery, female rabbits
[6] = common iliac artery, male rabbits
[7] = external iliac artery, female rabbits
[8] = external iliac artery, male rabbits

CC(C)[C@@H]1NC(=O)[C@H](CCCCN)NC(=O)[C@@H](Cc2c[nH]c3ccccc23)NC(=O)[C@H](Cc2ccc(O)cc2)NC(=O)[C@@H](NC(=O)[C@H](N)Cc2ccc3ccccc3c2)CSSC[C@@H](C(=O)N[C@H](C(N)=O)[C@@H](C)O)NC1=O [Angiopeptin, D-Nal-Cys-Tyr-D-Trp-Lys-Val-Cys-Thr-NH₂]
myointimal proliferation of the carotid artery following endothelial injury by air drying ([1]; 20 µg/kg/day s.c. in two divided doses, from two days prior to injury and five days after, sacrifice day 15): effective | myointimal proliferation of the carotid artery following endothelial injury by air drying ([1]; 50 µg/kg/day s.c. in two divided doses, from two days prior to injury and five days after, sacrifice day 15): effective | myointimal proliferation ([1]; 50 µg/kg/day, started 30 min prior to the arterial injury and for a further five days): significantly (p<0.01) inhibited | myointimal proliferation of the carotid artery following endothelial injury by air drying ([1]; overall statement for the doses used (20 and 50 µg/kg/day s.c.), started two days prior to injury): inhibited significantly (P<0.01) | percentage of inhibition of myointimal hyperplasia (Myointimal Hyperplasia; aorta, female rabbits): ~43% | % Intimal hyperplasia, Mean (Myointimal Hyperplasia; aorta, female rabbits): 12.5% | % Intimal hyperplasia (Myointimal Hyperplasia; aorta, female rabbits): 13.0% and 10.7% and 12.8% and 19.5% and 6.4% | percentage of inhibition of myointimal hyperplasia (Myointimal Hyperplasia; aorta, male rabbits): ~32% | % Intimal hyperplasia, Mean (Myointimal Hyperplasia; aorta, male rabbits): 14.8% | % Intimal hyperplasia (Myointimal Hyperplasia; aorta, male rabbits): 15.9% and 17.0% and 12.4% and 13.3% and 13.8% and 15.7% (2×) | percentage of inhibition of myointimal hyperplasia (Myointimal Hyperplasia; [5]): ~33% | % Intimal hyperplasia, Mean (Myointimal Hyperplasia; [5]): 13.1% | % Intimal hyperplasia (Myointimal Hyperplasia; [5]): 6.5% and 9.3% and 9.5% and 19.7% and 20.5% and 15.3% and 16.6% and 7.7% | percentage of inhibition of myointimal hyperplasia (Myointimal Hyperplasia; [6]): ~39% | % Intimal hyperplasia, Mean (Myointimal Hyperplasia; [6]): 14.1% | % Intimal hyperplasia (Myointimal Hyperplasia; [6]): 14.9% and 16.0% and 6.4% and 17.4% and 13.9% and 15.8% and 14.0% | percentage of inhibition of myointimal hyperplasia (Myointimal Hyperplasia; [7]): about 41% | % Intimal hyperplasia, Mean (Myointimal Hyperplasia; [7]): 20.7% | % Intimal hyperplasia (Myointimal Hyperplasia; [7]): 17.8% and 26.4% and 15.2% and 21.3% and 33.6% and 24.1% and 20.6% and 6.6% | percentage of inhibition of myointimal hyperplasia (Myointimal Hyperplasia; [8]): ~20% | % Intimal hyperplasia, Mean (Myointimal Hyperplasia; [8]): 24.4% | % Intimal hyperplasia (Myointimal Hyperplasia; [8]): 30.5% and 19.2% and 25.7% and 26.5% and 22.3% and 37.9% and 22.2% | inhibition of smooth muscle cell proliferation [2]: nearly complete inhibition | Levels of Proteins (total protein content of the injured aortas) ([3]; 2 µg/kg body wt.): lowered the total protein content | DNA/Protein Ratio ([3]; 20 µg/kg body weight): significantly lowered | Thymidine (3-H) Incorporation (rates of cell proliferation) ([3]; 20 µg/kg body wt.): significantly lower | DNA/Protein Ratio ([3]; 200 µg/kg body wt.): reflected the inhibitory influence | Thymidine (3-H) Incorporation (rates of cell proliferation) ([3]; 200 µg/kg): still inhibited the myointimal proliferation | Wet Weight of aortas ([3]; 2, 20 and 200 µg/kg body wt. daily, 72 hours after balloon angioplasty, Fig. 1): does not seem to influence | Levels of Proteins (total protein content of the injured aortas) ([3]; higher doses (20 and 200 µg/kg body wt.)): did not affect the levels of total proteins | CPM ([4]; Angiopeptin 10 ng/ml): 35113.84 CPM and 46392.32 CPM and 27312.80 CPM and 55980.00 CPM | CPM ([4]; Angiopeptin 20 ng/ml): 26279.81 CPM and 39027.27 CPM and 39706.01 CPM and 21562.08 CPM | CPM ([4]; Angiopeptin 50 ng/ml): 24269.18 CPM and 40768.09 CPM and 18983.78 CPM and 18942.16 CPM | CPM ([4]; Angiopeptin 100 ng/ml): 20794.85 CPM and 32402.31 CPM and 22033.48 CPM and 26227.64 CPM | CPM ([4]; Angiopeptin […] (so in the source)): 18325.51 CPM and 27260.98 CPM and 30226.99 CPM and 32344.58 CPM | inhibition of growth hormone release (growth hormone release): less active | inhibition of growth hormone release (growth hormone release; listed as BIM 23014): potent inhibitors of growth hormone release
